Laboratory results published in ChEMBL document CHEMBL5537118, “Synthesis of cinnamoyl tethered indoline derivatives with anti-inflammatory and antioxidant activities” (Eur J Med Chem, 2024).
The source made the active and inactive calls. The calls are words filed in the database; no cut-off is given here.

Tests used:
RAW264.7 [1] = experiment: Antiinflammatory activity in LPS-induced mouse RAW264.7 cells assessed as inhibition of NO production at 2 to 10 uM pretreated for 1 hr followed by LPS addition and measured after 24 hrs by griess reagent based assay; assay type: functional, cell-based; settings: dose 2-10 µM, time 25.0 hrs
RAW264.7 [2] = experiment: Effect on HO-1 protein expression in mouse RAW264.7 cells at 0.5 to 2 uM incubated for 24 hrs by Western blot analysis; assay type: functional, cell-based; settings: dose 0.5-2 µM
[3] = Cytotoxicity against mouse RAW264.7 cells assessed as cell viability at 2 to 10 uM measured after 24 hrs; assay type: toxicity, cell-based; settings: dose 2-10 µM, read-out: Activity
Mus musculus [4] = experiment: Antiinflammatory activity in carrageenan-induced Kunming mouse model of paw edema assessed as paw volume at 1 mg/kg, ip pretreated for 1 hr followed by carrageenan administration and measured after 1 hr by digital plethysmometer (reference value: 0.395 +/- 0.017 mL); assay type: functional; settings: time 2 hrs
Mus musculus [5] = experiment: Antiinflammatory activity in carrageenan-induced Kunming mouse model of paw edema assessed as edema inhibition at 30 mg/kg, ip pretreated for 1 hr followed by carrageenan administration and measured after 3 hrs relative to control; assay type: functional; settings: time 4 hrs
Mus musculus [6] = experiment: Antiinflammatory activity in carrageenan-induced Kunming mouse model of paw edema assessed as edema inhibition at 1 mg/kg, ip pretreated for 1 hr followed by carrageenan administration and measured after 3 hrs relative to control; assay type: functional; settings: time 4 hrs
RAW264.7 [7] = experiment: Antiinflammatory activity in LPS-induced mouse RAW264.7 cells assessed as inhibition of iNOS protein expression at around 2 uM incubated for 24 hrs by Western blot analysis relative to control; assay type: functional
Mus musculus [8] = experiment: Antiinflammatory activity in carrageenan-induced Kunming mouse model of paw edema assessed as edema inhibition at 30 mg/kg, IG pretreated for 1 hr followed by carrageenan administration and measured after 5 hrs relative to control; assay type: functional; settings: po, time 6 hrs
Mus musculus [9] = experiment: Antioxidant activity in ip dosed carrageenan-induced Kunming mouse model of paw edema assessed as increase in HO-1 protein expression in paw tissue pretreated for 1 hr followed by carrageenan administration and measured after 5 hrs by Western blot analysis; assay type: functional, organism-based; settings: dose 1-30 mg/kg, time 6.0 hrs
Mus musculus [10] = experiment: Antiinflammatory activity in carrageenan-induced Kunming mouse model of paw edema assessed as edema inhibition at 10 mg/kg, ip pretreated for 1 hr followed by carrageenan administration and measured after 5 hrs relative to control; assay type: functional; settings: time 6 hrs
RAW264.7 [11] = experiment: Antiinflammatory activity in LPS-induced mouse RAW264.7 cells assessed as reduction in TNF-alpha level incubated for 24 hrs by ELISA; assay type: functional, cell-based
RAW264.7 [12] = experiment: Antiinflammatory activity in LPS-induced mouse RAW264.7 cells assessed as inhibition of NO production pretreated for 1 hr followed by LPS addition and measured after 24 hrs by griess reagent based assay; assay type: functional, cell-based
Mus musculus [13] = experiment: Antiinflammatory activity in carrageenan-induced Kunming mouse model of paw edema assessed as paw volume at 30 mg/kg, IG pretreated for 1 hr followed by carrageenan administration and measured after 5 hrs by digital plethysmometer (reference value: 0.353 +/- 0.024 mL); assay type: functional; settings: time 6 hrs
Mus musculus [14] = experiment: Antiinflammatory activity in carrageenan-induced Kunming mouse model of paw edema assessed as paw volume at 30 mg/kg, IG pretreated for 1 hr followed by carrageenan administration and measured after 1 hr by digital plethysmometer (reference value: 0.407 +/- 0.023 mL); assay type: functional; settings: time 2 hrs
Mus musculus [15] = experiment: Antiinflammatory activity in carrageenan-induced Kunming mouse model of paw edema assessed as edema inhibition at 30 mg/kg, ip pretreated for 1 hr followed by carrageenan administration and measured after 1 hr relative to control; assay type: functional; settings: time 2 hrs
Mus musculus [16] = experiment: Antiinflammatory activity in carrageenan-induced Kunming mouse model of paw edema assessed as reduction in iNOS protein expression in paw tissue at 1 to 30 mg/kg, ip pretreated for 1 hr followed by carrageenan administration and measured after 5 hrs by Western blot analysis; assay type: functional, organism-based; settings: dose 1-30 mg/kg, time 6.0 hrs
Mus musculus [17] = experiment: Antiinflammatory activity in carrageenan-induced Kunming mouse model of paw edema assessed as paw volume at 30 mg/kg, ip pretreated for 1 hr followed by carrageenan administration and measured after 3 hrs by digital plethysmometer (reference value: 0.377 +/- 0.018 mL); assay type: functional; settings: time 4 hrs
Mus musculus [18] = experiment: Antiinflammatory activity in carrageenan-induced Kunming mouse model of paw edema assessed as edema inhibition at 30 mg/kg, IG pretreated for 1 hr followed by carrageenan administration and measured after 3 hrs relative to control; assay type: functional; settings: po, time 4 hrs
RAW264.7 [19] = experiment: Inhibition of NF-kappaB activation in LPS-induced mouse RAW264.7 cells assessed as inhibition of p65 phosphorylation by measuring reduction in p-p65/p65 expression at 0.5 to 2 uM by Western blot analysis; assay type: cell-based; settings: dose 0.5-2 µM
RAW264.7 [20] = experiment: Inhibition of NF-kappaB activation in LPS-induced mouse RAW264.7 cells assessed as inhibition of IkappaBalpha phosphorylation by measuring reduction in p-IkappaBalpha/IkappaBalpha expression at 0.5 to 2 uM by Western blot analysis; assay type: cell-based; settings: dose 0.5-2 µM

SMILES: O=C(/C=C/c1ccc(O)c(O)c1)NCCCN1CCc2cc(Cl)ccc21
- Activity (RAW264.7 [1]): Active
- Activity (RAW264.7 [2]): inactive
- viability at 24 h, 10 µM [3]: > 85%
- Activity (Mus musculus [4]): 0.32 mL
- inhibition in vivo at 30 mg/kg (Mus musculus [5]): 95.9%
- inhibition in vivo at 1 mg/kg (Mus musculus [6]): 45.1%
- inhibition at 2 µM (RAW264.7 [7]): 50%
- inhibition in vivo at 30 mg/kg (Mus musculus [8]): 58.1%
- Activity (Mus musculus [9]): Dose-Dependent Effect
- inhibition in vivo at 10 mg/kg (Mus musculus [10]): 86.6%
- Activity (RAW264.7 [11]): Dose-Dependent Effect
- IC50 (RAW264.7 [11]; RAW264.7, 24 h): 1520 nM
- IC50 (RAW264.7 [12]): 900 nM
- Activity (Mus musculus [13]): 0.227 mL
- Activity (Mus musculus [14]): 0.339 mL
- inhibition in vivo at 30 mg/kg (Mus musculus [15]): 87.1%
- Activity (Mus musculus [16]): Active
- Activity (Mus musculus [17]): 0.143 mL
- inhibition in vivo at 30 mg/kg (Mus musculus [18]): 50%
- inhibition (RAW264.7 [19]): Active
- inhibition (RAW264.7 [20]): Active
